Data reported in the supplement of paper PMC10307832.

How the values were obtained:
Assay in all cases: relative viability (nuclei count vs DMSO), 5 days (fraction); higher = more cells survive
Carfilzomib + Pemetrexed = compound: CC(C)C[C@H](NC(=O)[C@H](CCc1ccccc1)NC(=O)CN1CCOCC1)C(=O)N[C@@H](Cc1ccccc1)C(=O)N[C@@H](CC(C)C)C(=O)[C@@]1(C)CO1 [Carfilzomib] + Nc1nc2[nH]cc(CCc3ccc(C(=O)N[C@@H](CCC(=O)O)C(=O)O)cc3)c2c(=O)[nH]1 [Pemetrexed] (partner 0.2 µM)
Summary of the method: (§1)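 Relative viability divides the nuclei count in treated wells by that in vehicle wells. Lung cancer cell lines were seeded in 1536-well plates, dosed by pin tool the next day, and fixed and stained after 5 days in one step with final 0.05% Triton X-100, 1% formaldehyde and 1 ug/ml Hoechst. Dosing was a single drug or a fixed anchor-drug dose plus five library-drug doses (not always all listed) in √10 steps, and values are medians of duplicate plates imaged at 4×.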

Crizotinib + Navitoclax = compound: C[C@@H](Oc1cc(-c2cnn(C3CCNCC3)c2)cnc1N)c1c(Cl)ccc(F)c1Cl [Crizotinib] + CC1(C)CCC(c2ccc(Cl)cc2)=C(CN2CCN(c3ccc(C(=O)NS(=O)(=O)c4ccc(N[C@H](CCN5CCOCC5)CSc5ccccc5)c(S(=O)(=O)C(F)(F)F)c4)cc3)CC2)C1 [Navitoclax] (partner 0.5 µM)
Summary of the method: as §1

Olaparib + Palbociclib = compound: O=C(c1cc(Cc2n[nH]c(=O)c3ccccc23)ccc1F)N1CCN(C(=O)C2CC2)CC1 [Olaparib] + CC(=O)c1c(C)c2cnc(Nc3ccc(N4CCNCC4)cn3)nc2n(C2CCCC2)c1=O [Palbociclib] (partner 0.5 µM)
Summary of the method: as §1

Olaparib + Dasatinib = compound: O=C(c1cc(Cc2n[nH]c(=O)c3ccccc23)ccc1F)N1CCN(C(=O)C2CC2)CC1 [Olaparib] + Cc1nc(Nc2ncc(C(=O)Nc3c(C)cccc3Cl)s2)cc(N2CCN(CCO)CC2)n1 [Dasatinib] (partner 0.075 µM)
Summary of the method: as §1

Crizotinib + Dasatinib = compound: C[C@@H](Oc1cc(-c2cnn(C3CCNCC3)c2)cnc1N)c1c(Cl)ccc(F)c1Cl [Crizotinib] + Cc1nc(Nc2ncc(C(=O)Nc3c(C)cccc3Cl)s2)cc(N2CCN(CCO)CC2)n1 [Dasatinib] (partner 0.075 µM)
Summary of the method: as §1

NCI-H1793 was tested, and the relative viability (Carfilzomib + Pemetrexed; first compound 0.001 µM) was 0.58, the relative viability (Carfilzomib + Pemetrexed; first compound 0.003162 µM) was 1.13 and the relative viability (Carfilzomib + Pemetrexed; first compound 0.01 µM) was 0.861. For the same cell line, the relative viability (Carfilzomib + Pemetrexed; first compound 0.03162 µM) was 0.7, the relative viability (Carfilzomib + Pemetrexed; first compound 0.1 µM) was 0.336 and the relative viability (Crizotinib + Navitoclax; first compound 0.01 µM) was 0.362. It also gave a relative viability (Crizotinib + Navitoclax; first compound 0.03162 µM) of 0.486, a relative viability (Crizotinib + Navitoclax; first compound 0.1 µM) of 0.384 and a relative viability (Crizotinib + Navitoclax; first compound 1 µM) of 0.529. It also gave a relative viability (Olaparib + Palbociclib; first compound 0.08 µM) of 0.274, a relative viability (Olaparib + Palbociclib; first compound 0.253 µM) of 0.302 and a relative viability (Olaparib + Palbociclib; first compound 2.53 µM) of 0.327. The relative viability (Olaparib + Palbociclib; first compound 8 µM) was 0.286, the relative viability (Olaparib + Dasatinib; first compound 0.08 µM) was 0.377 and the relative viability (Olaparib + Dasatinib; first compound 0.253 µM) was 0.38. The relative viability (Olaparib + Dasatinib; first compound 2.53 µM) was 0.353, the relative viability (Olaparib + Dasatinib; first compound 8 µM) was 0.303 and the relative viability (Crizotinib + Dasatinib; first compound 0.03162 µM) was 0.401. For the same cell line, the relative viability (Crizotinib + Dasatinib; first compound 0.1 µM) was 0.382 and the relative viability (Crizotinib + Dasatinib; first compound 1 µM) was 0.369.
